How the values were obtained:
Test in all cases: cells
Type in all cases: functional, cell-based, Homo sapiens
[1] = tested on: DK-MG; conditions: Homo sapiens, DK-MG;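 further: growth inhibition of DK-MG cells, read out with a cell viability assay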
Description: SANGER: Inhibition of human DK-MG cell growth in a cell viability assay.

[2] = tested on: DMS-153; conditions: Homo sapiens, DMS-153
Description: SANGER: Inhibition of human DMS-153 cell growth in a cell viability assay.

[3] = tested on: EB-3; conditions: Homo sapiens, EB-3;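 further: human EB-3 cells, growth inhibition read out via a cell viability assay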
Description: SANGER: Inhibition of human EB-3 cell growth in a cell viability assay.

[4] = tested on: ECC4; conditions: Homo sapiens, ECC4;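 further: growth inhibition of ECC4 cells, read out with a cell viability assay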
Description: SANGER: Inhibition of human ECC4 cell growth in a cell viability assay.

[5] = tested on: ESS-1; conditions: Homo sapiens, ESS-1;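 further: growth inhibition of human ESS-1 cells, read out by a cell viability assay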
Description: SANGER: Inhibition of human ESS-1 cell growth in a cell viability assay.

[6] = tested on: FaDu; conditions: Homo sapiens, FaDu;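 further: cell viability readout of growth inhibition in FaDu cells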
Description: SANGER: Inhibition of human FADU cell growth in a cell viability assay.

[7] = tested on: G-401; conditions: Homo sapiens, G-401
Description: SANGER: Inhibition of human G-401 cell growth in a cell viability assay.

[8] = tested on: GDM-1; conditions: Homo sapiens, GDM-1;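 further: cell viability readout used to measure growth inhibition of human GDM-1 cells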
Description: SANGER: Inhibition of human GDM-1 cell growth in a cell viability assay.

[9] = tested on: H4; conditions: Homo sapiens, H4
Description: SANGER: Inhibition of human H4 cell growth in a cell viability assay.

[10] = tested on: HCC1806; conditions: Homo sapiens, HCC1806;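 further: growth inhibition of the cancer cell line, determined with a cell viability assay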
Description: SANGER: Inhibition of human HCC1806 cell growth in a cell viability assay.

[11] = tested on: HPAF-II; conditions: Homo sapiens, HPAF-II;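 further: growth inhibition of HPAF-II cells, read out with a cell viability assay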
Description: SANGER: Inhibition of human HPAF-II cell growth in a cell viability assay.

[12] = tested on: HTC-C3; conditions: Homo sapiens, HTC-C3;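 further: inhibition of cell growth, read out with a cell viability assay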
Description: SANGER: Inhibition of human HTC-C3 cell growth in a cell viability assay.

[13] = tested on: JIYOYE; conditions: Homo sapiens, JIYOYE
Description: SANGER: Inhibition of human JiyoyeP-2003 cell growth in a cell viability assay.

[14] = tested on: KARPAS-422; conditions: Homo sapiens, KARPAS-422
Description: SANGER: Inhibition of human KARPAS-422 cell growth in a cell viability assay.

[15] = tested on: KMS-12-PE; conditions: Homo sapiens, KMS-12-PE;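 further: growth inhibition of human KMS-12-PE cells, measured with a cell viability assay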
Description: SANGER: Inhibition of human KMS-12-PE cell growth in a cell viability assay.

[16] = tested on: KYSE-140; conditions: Homo sapiens, KYSE-140;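 further: cell viability assay measuring growth inhibition in human KYSE-140 cells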
Description: SANGER: Inhibition of human KYSE-140 cell growth in a cell viability assay.

[17] = tested on: KYSE-450; conditions: Homo sapiens, KYSE-450;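 further: cell growth inhibition measured by a viability assay in human KYSE-450 cells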
Description: SANGER: Inhibition of human KYSE-450 cell growth in a cell viability assay.

[18] = tested on: LK-2; conditions: Homo sapiens, LK-2;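 further: growth inhibition of LK-2 cells, read out with a viability assay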
Description: SANGER: Inhibition of human LK-2 cell growth in a cell viability assay.

[19] = tested on: LP-1; conditions: Homo sapiens, LP-1;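 further: growth inhibition of human LP-1 cells, with the read-out taken from a cell viability assay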
Description: SANGER: Inhibition of human LP-1 cell growth in a cell viability assay.

[20] = tested on: MC-IXC; conditions: Homo sapiens, MC-IXC;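 further: growth inhibition of MC-IXC cells, read out with a cell viability assay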
Description: SANGER: Inhibition of human MC-IXC cell growth in a cell viability assay.

[21] = tested on: MG-63; conditions: Homo sapiens, MG-63;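 further: growth inhibition of human MG-63 cells, read out with a cell viability assay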
Description: SANGER: Inhibition of human MG-63 cell growth in a cell viability assay.

[22] = tested on: MKN-45; conditions: Homo sapiens, MKN-45;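 further: growth inhibition of human MKN-45 cells, measured with a cell viability assay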
Description: SANGER: Inhibition of human MKN45 cell growth in a cell viability assay.

[23] = tested on: NCI-H1792; conditions: Homo sapiens, NCI-H1792;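 further: growth inhibition of human NCI-H1792 cells, read out as cell viability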
Description: SANGER: Inhibition of human NCI-H1792 cell growth in a cell viability assay.

[24] = tested on: NCI-H1793; conditions: Homo sapiens, NCI-H1793;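 further: cell growth inhibition, read out by a cell viability assay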
Description: SANGER: Inhibition of human NCI-H1793 cell growth in a cell viability assay.

[25] = tested on: NCI-H2009; conditions: Homo sapiens, NCI-H2009;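 further: cell viability assay measuring inhibition of NCI-H2009 cell growth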
Description: SANGER: Inhibition of human NCI-H2009 cell growth in a cell viability assay.

[26] = tested on: NCI-H2122; conditions: Homo sapiens, NCI-H2122;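 further: growth inhibition of the cells, read out with a cell viability assay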
Description: SANGER: Inhibition of human NCI-H2122 cell growth in a cell viability assay.

[27] = tested on: NCI-H2405; conditions: Homo sapiens, NCI-H2405;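 further: growth inhibition of the human cell line, read out with a cell viability assay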
Description: SANGER: Inhibition of human NCI-H2405 cell growth in a cell viability assay.

[28] = tested on: NCI-H460; conditions: Homo sapiens, NCI-H460;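 further: cell viability assay scoring growth inhibition of human NCI-H460 cells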
Description: SANGER: Inhibition of human NCI-H460 cell growth in a cell viability assay.

[29] = tested on: NCI-H650; conditions: Homo sapiens, NCI-H650;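 further: growth inhibition of NCI-H650 cells, read out by a viability assay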
Description: SANGER: Inhibition of human NCI-H650 cell growth in a cell viability assay.

[30] = tested on: P12-Ichikawa; conditions: Homo sapiens, P12-Ichikawa
[31] = tested on: P31-FUJ; conditions: Homo sapiens, P31-FUJ;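 further: growth inhibition of P31-FUJ cells, read out with a viability assay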
Description: SANGER: Inhibition of human P31-FUJ cell growth in a cell viability assay.

[32] = tested on: RT-112; conditions: Homo sapiens, RT-112
Description: SANGER: Inhibition of human RT-112 cell growth in a cell viability assay.

[33] = tested on: SK-N-AS; conditions: Homo sapiens, SK-N-AS;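 further: growth inhibition of human SK-N-AS cells, measured with a cell viability assay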
Description: SANGER: Inhibition of human SK-N-AS cell growth in a cell viability assay.

[34] = tested on: SNU-C1; conditions: Homo sapiens, SNU-C1;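 further: growth inhibition of SNU-C1 human cells, read out by a cell viability assay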
Description: SANGER: Inhibition of human SNU-C1 cell growth in a cell viability assay.

[35] = tested on: SW1088; conditions: Homo sapiens, SW1088;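 further: growth inhibition of human SW1088 cells, read out by a cell viability assay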
Description: SANGER: Inhibition of human SW1088 cell growth in a cell viability assay.

[36] = tested on: SW1710; conditions: Homo sapiens, SW1710;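 further: growth inhibition of SW1710 cells, determined with a cell viability assay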
Description: SANGER: Inhibition of human SW1710 cell growth in a cell viability assay.

[37] = tested on: SW837; conditions: Homo sapiens, SW837;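 further: growth inhibition of SW837 cells, determined with a cell viability assay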
Description: SANGER: Inhibition of human SW837 cell growth in a cell viability assay.

[38] = tested on: 769-P; conditions: Homo sapiens, 769-P
Description: SANGER: Inhibition of human 769-P cell growth in a cell viability assay.

[39] = tested on: AGS; conditions: Homo sapiens, AGS;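 further: growth inhibition of AGS cells, determined with a cell viability assay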
Description: SANGER: Inhibition of human AGS cell growth in a cell viability assay.

[40] = tested on: ARH-77; conditions: Homo sapiens, ARH-77;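 further: growth inhibition of ARH-77 cells, read out by a cell viability assay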
Description: SANGER: Inhibition of human ARH-77 cell growth in a cell viability assay.

[41] = tested on: BOKU; conditions: Homo sapiens, BOKU;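 further: growth inhibition of the human BOKU cell line, read out by a cell viability assay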
Description: SANGER: Inhibition of human BOKU cell growth in a cell viability assay.

[42] = tested on: CAL-27; conditions: Homo sapiens, CAL-27;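 further: Viability-based readout, IC50 reflecting inhibition of CAL-27 cell growth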
Description: SANGER: Inhibition of human CAL-27 cell growth in a cell viability assay.

[43] = tested on: CAL-39; conditions: Homo sapiens, CAL-39;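 further: cell viability assay measuring growth inhibition of CAL-39 cells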
Description: SANGER: Inhibition of human CAL-39 cell growth in a cell viability assay.

[44] = tested on: CAL-51; conditions: Homo sapiens, CAL-51;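 further: human CAL-51 cell line, growth inhibition read out via a cell viability assay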
Description: SANGER: Inhibition of human CAL-51 cell growth in a cell viability assay.

[45] = tested on: CAL-72; conditions: Homo sapiens, CAL-72;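 further: cell viability assay measuring inhibition of proliferation in the CAL-72 cell line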
Description: SANGER: Inhibition of human CAL-72 cell growth in a cell viability assay.

[46] = tested on: UACC-893; conditions: Homo sapiens, UACC-893
Description: SANGER: Inhibition of human UACC-893 cell growth in a cell viability assay.

[47] = tested on: YAPC; conditions: Homo sapiens, YAPC;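 further: growth inhibition of YAPC cells, measured with a cell viability assay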
Description: SANGER: Inhibition of human YAPC cell growth in a cell viability assay.

[48] = tested on: YKG-1; conditions: Homo sapiens, YKG-1;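 further: cell growth inhibition, read out with a viability assay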
Description: SANGER: Inhibition of human YKG-1 cell growth in a cell viability assay.

Cc1cc([N+](=O)[O-])ccc1NS(=O)(=O)c1cc(Cl)ccc1Cl
IC50 [1]: 12.3 µM | IC50 [2]: 29.1 µM | IC50 [3]: 4.25 µM | IC50 [4]: > 32 µM | IC50 [5]: 7.38 µM | IC50 [6]: 4.28 µM | IC50 [7]: 0.861 µM | IC50 [8]: 8.37 µM | IC50 [9]: 2.59 µM | IC50 [10]: 20.5 µM | IC50 [11]: 10.7 µM | IC50 [12]: 3.03 µM | IC50 [13]: 6.6 µM | IC50 [14]: 8.26 µM | IC50 [15]: > 32 µM | IC50 [16]: 4.58 µM | IC50 [17]: 6.37 µM | IC50 [18]: 0.928 µM | IC50 [19]: 10.6 µM | IC50 [20]: 2.51 µM | IC50 [21]: 5.96 µM | IC50 [22]: 2.15 µM | IC50 [23]: 8.53 µM | IC50 [24]: > 32 µM | IC50 [25]: 2.69 µM | IC50 [26]: 1.17 µM | IC50 [27]: 3.96 µM | IC50 [28]: 3.66 µM | IC50 [29]: 2.78 µM | IC50 [30]: 13.8 µM | IC50 [31]: 7.77 µM | IC50 [32]: 6.11 µM | IC50 [33]: 6.53 µM | IC50 [34]: > 32 µM | IC50 [35]: 12.3 µM | IC50 [36]: 2.33 µM | IC50 [37]: 4 µM | IC50 [38]: 6.73 µM | IC50 [39]: 5.37 µM | IC50 [40]: > 32 µM | IC50 [41]: 4.36 µM | IC50 [42]: 3.16 µM | IC50 [43]: 2.16 µM | IC50 [44]: 2.75 µM | IC50 [45]: > 32 µM | IC50 [46]: 3.06 µM | IC50 [47]: > 32 µM | IC50 [48]: 5.66 µM

C=C(c1ccc(C(=O)O)cc1)c1cc2c(cc1C)C(C)(C)CCC2(C)C [BEXAROTENE]
IC50 [1]: 0.0512 µM | IC50 [2]: > 8 µM | IC50 [3]: > 8 µM | IC50 [4]: > 8 µM | IC50 [5]: > 8 µM | IC50 [6]: > 8 µM | IC50 [7]: > 8 µM | IC50 [8]: > 8 µM | IC50 [9]: > 8 µM | IC50 [10]: > 8 µM | IC50 [11]: > 8 µM | IC50 [12]: > 8 µM | IC50 [13]: > 8 µM | IC50 [14]: > 8 µM | IC50 [15]: > 8 µM | IC50 [16]: > 8 µM | IC50 [17]: > 8 µM | IC50 [18]: > 8 µM | IC50 [19]: > 8 µM | IC50 [20]: 7.97 µM | IC50 [21]: 0.789 µM | IC50 [22]: > 8 µM | IC50 [23]: > 8 µM | IC50 [24]: > 8 µM | IC50 [25]: > 8 µM | IC50 [26]: 4.94 µM | IC50 [27]: > 8 µM | IC50 [28]: > 8 µM | IC50 [29]: > 8 µM | IC50 [30]: > 8 µM | IC50 [31]: > 8 µM | IC50 [32]: > 8 µM | IC50 [33]: > 8 µM | IC50 [34]: > 8 µM | IC50 [35]: > 8 µM | IC50 [36]: > 8 µM | IC50 [37]: > 8 µM | IC50 [38]: > 8 µM | IC50 [39]: > 8 µM | IC50 [40]: > 8 µM | IC50 [41]: > 8 µM | IC50 [42]: > 8 µM | IC50 [43]: > 8 µM | IC50 [44]: > 8 µM | IC50 [45]: > 8 µM | IC50 [46]: > 8 µM | IC50 [47]: > 8 µM | IC50 [48]: > 8 µM

COc1cccc2c1C(=O)c1c(O)c3c(c(O)c1C2=O)C[C@@](O)(C(=O)CO)C[C@@H]3O[C@H]1C[C@H](N)[C@H](O)[C@H](C)O1 [DOXORUBICIN]
IC50 [1]: > 1.02 µM | IC50 [2]: 0.698 µM | IC50 [3]: 0.771 µM | IC50 [4]: > 1.02 µM | IC50 [5]: 0.0111 µM | IC50 [6]: 0.102 µM | IC50 [7]: 0.0302 µM | IC50 [8]: 0.16 µM | IC50 [9]: 0.0716 µM | IC50 [10]: 0.075 µM | IC50 [11]: 0.527 µM | IC50 [12]: 0.704 µM | IC50 [13]: 0.138 µM | IC50 [14]: 0.193 µM | IC50 [15]: 0.418 µM | IC50 [16]: 0.0504 µM | IC50 [17]: 0.0447 µM | IC50 [18]: 0.581 µM | IC50 [19]: > 1.02 µM | IC50 [20]: 0.0679 µM | IC50 [21]: 0.0221 µM | IC50 [22]: 0.0815 µM | IC50 [23]: 0.572 µM | IC50 [24]: 0.901 µM | IC50 [25]: 0.0518 µM | IC50 [26]: 0.0379 µM | IC50 [27]: 0.234 µM | IC50 [28]: 0.0127 µM | IC50 [29]: 0.218 µM | IC50 [30]: 0.0493 µM | IC50 [31]: > 1.02 µM | IC50 [32]: 0.0329 µM | IC50 [33]: > 1.02 µM | IC50 [34]: > 1.02 µM | IC50 [35]: > 1.02 µM | IC50 [36]: 0.0174 µM | IC50 [37]: 0.118 µM | IC50 [38]: 0.0208 µM | IC50 [39]: 0.0133 µM | IC50 [40]: 0.11 µM | IC50 [41]: 0.111 µM | IC50 [42]: 0.0326 µM | IC50 [43]: 0.0982 µM | IC50 [44]: 0.0173 µM | IC50 [45]: 0.841 µM | IC50 [46]: 0.522 µM | IC50 [47]: > 1.02 µM | IC50 [48]: 0.0188 µM

Source: ChEMBL document CHEMBL1201861, “Genomics of Drug Sensitity in Cancer screening data, Wellcome Trust Sanger Institute”
